The values below come from ChEMBL document CHEMBL1201862, “PubChem BioAssay data set” (2004).

The target of assay [1] is Diphosphomevalonate decarboxylase (Streptococcus pneumoniae serotype 2 (strain D39 / NCTC 7466), UniProt Q9FD53). In words: diphosphomevalonate decarboxylase inhibitor confirmation – biochemical, cuvette format, coupled NADH fluorescence (AID 1028). It is filed as functional.
The nature of assay [2]: glucagon-like peptide-1 release potency in STC-1, concentration-response, half-maximal inhibitory concentration in the STC-1 line (AID 1117345). It counts as functional, cell-based.
Assay [3] is described as follows: Potency on glucagon-like peptide 1 release, dose-response in NCI-H716 cell line, half maximal inhibitory concentration (AID 1117344). It is filed as functional, cell-based.
For assay [4], the target named is T1, Fibrinogen beta chain (Homo sapiens, UniProt P02675). In words: Fluorescence polarization-based biochemical high throughput dose response assay to identify inhibitors that disrupt the binding of a cyclic peptide (Tn7) to the fibrin proteolytic product D-Dimer and fragment E complex [DD(E )]. Background: Fluorescence polarisation rises when a labelled molecule tumbles more slowly, as on binding a larger partner.
T1 sequence (P02675 whole entry, the tested form may be a part): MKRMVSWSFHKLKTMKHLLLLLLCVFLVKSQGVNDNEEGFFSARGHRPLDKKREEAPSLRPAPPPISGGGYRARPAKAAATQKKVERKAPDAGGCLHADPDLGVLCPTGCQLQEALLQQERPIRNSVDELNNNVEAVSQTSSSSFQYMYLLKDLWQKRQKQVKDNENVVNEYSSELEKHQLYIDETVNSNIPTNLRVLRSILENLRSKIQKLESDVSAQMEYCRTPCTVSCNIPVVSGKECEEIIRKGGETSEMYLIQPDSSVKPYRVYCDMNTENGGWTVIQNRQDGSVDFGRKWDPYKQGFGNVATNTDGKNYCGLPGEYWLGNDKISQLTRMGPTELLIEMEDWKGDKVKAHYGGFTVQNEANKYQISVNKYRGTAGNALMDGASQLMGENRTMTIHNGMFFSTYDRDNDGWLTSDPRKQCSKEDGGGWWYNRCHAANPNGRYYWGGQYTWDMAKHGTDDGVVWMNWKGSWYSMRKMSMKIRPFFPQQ

Assay [5] has as its target T1, Fibrinogen beta chain. Put plainly: Fluorescence polarization-based biochemical high throughput dose response assay to identify inhibitors that disrupt the binding of a cyclic peptide (Tn6) to the fibrin proteolytic product D-Dimer and fragment E complex [DD(E )].
The target in assay [6] is Induced myeloid leukemia cell differentiation protein Mcl-1 (Homo sapiens, UniProt Q07820). It counts as functional.
Chain of Induced myeloid leukemia cell differentiation protein Mcl-1 (Q07820 whole entry): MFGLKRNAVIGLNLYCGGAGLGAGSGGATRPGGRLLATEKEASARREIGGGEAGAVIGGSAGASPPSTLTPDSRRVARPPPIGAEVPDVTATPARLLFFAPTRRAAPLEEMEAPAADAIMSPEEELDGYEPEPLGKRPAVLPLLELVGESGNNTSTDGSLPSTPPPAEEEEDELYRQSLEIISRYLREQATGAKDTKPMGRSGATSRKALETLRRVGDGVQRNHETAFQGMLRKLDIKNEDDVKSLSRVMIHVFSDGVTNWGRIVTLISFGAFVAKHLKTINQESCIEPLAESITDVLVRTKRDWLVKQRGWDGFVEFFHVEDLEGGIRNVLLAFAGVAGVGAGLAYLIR
Assay [7] addresses Glutathione-S-transferase (Schistosoma japonicum, UniProt Q26513). Put plainly: GST-antibody interaction or FRET quenching – biochemical, TR-FRET, artefact control for Vif-APOBEC3G degradation inhibitor project, dose response (AID 1117362). It counts as functional.
Assay [8] can be described thus: M. tuberculosis growth inhibition, HTS (AID 449762). It counts as functional.
For assay [9], the target named is Mitogen-activated protein kinase 10 (Homo sapiens, UniProt P53779). Put plainly: Dose response biochemical screening assay for inhibitors of c-Jun N-Terminal Kinase 3 (JNK3). [Related pubchem assays: 746 ].
Chain of Mitogen-activated protein kinase 10 (P53779 whole entry): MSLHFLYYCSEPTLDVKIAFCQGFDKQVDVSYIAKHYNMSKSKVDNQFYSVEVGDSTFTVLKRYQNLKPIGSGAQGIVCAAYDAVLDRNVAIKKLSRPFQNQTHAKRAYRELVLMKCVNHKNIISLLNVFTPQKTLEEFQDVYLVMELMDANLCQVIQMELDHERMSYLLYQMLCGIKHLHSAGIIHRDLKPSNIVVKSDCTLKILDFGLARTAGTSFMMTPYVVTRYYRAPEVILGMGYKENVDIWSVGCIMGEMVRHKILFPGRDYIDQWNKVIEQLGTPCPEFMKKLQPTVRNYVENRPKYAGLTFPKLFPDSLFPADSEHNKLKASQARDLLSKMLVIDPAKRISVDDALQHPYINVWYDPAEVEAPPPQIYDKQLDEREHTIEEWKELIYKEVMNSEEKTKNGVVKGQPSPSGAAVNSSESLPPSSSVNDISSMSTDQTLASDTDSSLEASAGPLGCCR
Assay [10] can be described thus: viability loss in THP-1 monocytes – THP-1 cells, cytotoxicity control for Vif-APOBEC3G degradation inhibitor project, dose response (AID 1117359). It counts as functional. The note with it: THP-1.
The next assay addresses T2, Protein RecA (Mycobacterium tuberculosis, UniProt P9WHJ3).
T2 sequence (P9WHJ3 whole entry): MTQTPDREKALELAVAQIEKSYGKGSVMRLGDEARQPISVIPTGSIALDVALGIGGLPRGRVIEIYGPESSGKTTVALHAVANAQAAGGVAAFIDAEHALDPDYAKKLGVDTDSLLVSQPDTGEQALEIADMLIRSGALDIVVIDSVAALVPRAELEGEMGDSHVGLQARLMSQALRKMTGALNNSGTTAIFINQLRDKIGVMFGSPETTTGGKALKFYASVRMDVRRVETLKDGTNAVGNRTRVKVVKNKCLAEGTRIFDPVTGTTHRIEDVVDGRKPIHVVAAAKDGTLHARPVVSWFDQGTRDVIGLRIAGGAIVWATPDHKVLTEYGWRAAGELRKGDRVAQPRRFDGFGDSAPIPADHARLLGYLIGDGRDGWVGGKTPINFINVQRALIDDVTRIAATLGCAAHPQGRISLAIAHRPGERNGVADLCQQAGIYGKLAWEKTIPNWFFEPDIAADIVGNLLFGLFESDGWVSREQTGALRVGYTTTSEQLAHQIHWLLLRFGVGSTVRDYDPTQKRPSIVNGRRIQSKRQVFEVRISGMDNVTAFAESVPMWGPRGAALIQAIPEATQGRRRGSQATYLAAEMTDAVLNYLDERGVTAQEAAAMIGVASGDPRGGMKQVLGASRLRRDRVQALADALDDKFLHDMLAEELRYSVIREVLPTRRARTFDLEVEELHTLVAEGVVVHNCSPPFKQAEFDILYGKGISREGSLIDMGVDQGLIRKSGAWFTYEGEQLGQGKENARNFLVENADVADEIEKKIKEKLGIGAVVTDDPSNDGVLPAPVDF
Put plainly: Fluorescence Cell-Free Homogeneous Dose Retest to Identify Inhibitors of RecA-Intein Splicing Activity. [Related pubchem assays (depositor defined):AID2097, AID2223, AID489010, AID492950]. It is filed as functional.

The target of assay [11] is T3, Replicative DNA helicase DnaB (Mycobacterium tuberculosis, UniProt P9WMR3).
T3 sequence (P9WMR3 whole entry): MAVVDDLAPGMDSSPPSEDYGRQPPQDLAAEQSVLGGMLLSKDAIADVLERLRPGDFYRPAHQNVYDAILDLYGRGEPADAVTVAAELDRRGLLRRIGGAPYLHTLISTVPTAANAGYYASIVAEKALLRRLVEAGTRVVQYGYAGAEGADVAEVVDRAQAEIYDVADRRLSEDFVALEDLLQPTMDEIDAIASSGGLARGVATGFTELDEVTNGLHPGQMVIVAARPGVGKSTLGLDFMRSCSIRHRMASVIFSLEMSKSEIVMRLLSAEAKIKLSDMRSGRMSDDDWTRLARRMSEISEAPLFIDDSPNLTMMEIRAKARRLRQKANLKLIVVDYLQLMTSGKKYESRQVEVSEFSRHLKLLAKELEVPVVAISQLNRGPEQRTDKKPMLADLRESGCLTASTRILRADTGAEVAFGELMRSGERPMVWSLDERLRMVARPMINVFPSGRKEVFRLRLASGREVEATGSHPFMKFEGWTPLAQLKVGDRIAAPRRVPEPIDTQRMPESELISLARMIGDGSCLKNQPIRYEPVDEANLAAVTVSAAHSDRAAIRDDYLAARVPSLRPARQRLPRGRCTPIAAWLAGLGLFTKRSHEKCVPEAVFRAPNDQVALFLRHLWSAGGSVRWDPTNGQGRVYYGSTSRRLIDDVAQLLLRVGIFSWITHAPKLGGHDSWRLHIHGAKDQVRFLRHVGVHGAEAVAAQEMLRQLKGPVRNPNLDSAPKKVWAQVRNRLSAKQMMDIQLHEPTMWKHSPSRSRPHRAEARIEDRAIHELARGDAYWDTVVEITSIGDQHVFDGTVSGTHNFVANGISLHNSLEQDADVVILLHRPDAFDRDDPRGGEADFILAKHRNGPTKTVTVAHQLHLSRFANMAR
In words: DnaB intein splicing inhibitors, dose response, biochemical, cell-free fluorescence (AID 449749). It is filed as functional.

Another assay concerns the target Protein Tat (Human immunodeficiency virus type 1 group M subtype B (isolate HXB2)(HIV-1), UniProt P04608). It is filed as functional.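 Note: tat binding to TAR RNA read out by fluorescence polarization.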

The source made the active and inactive calls. A value given as a limit tells only on which side of the number the result lay.

Chain of Protein Tat (P04608 whole entry): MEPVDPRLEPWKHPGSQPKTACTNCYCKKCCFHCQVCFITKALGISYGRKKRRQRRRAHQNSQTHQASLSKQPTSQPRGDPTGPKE
Chain of Glutathione-S-transferase (Q26513 whole entry): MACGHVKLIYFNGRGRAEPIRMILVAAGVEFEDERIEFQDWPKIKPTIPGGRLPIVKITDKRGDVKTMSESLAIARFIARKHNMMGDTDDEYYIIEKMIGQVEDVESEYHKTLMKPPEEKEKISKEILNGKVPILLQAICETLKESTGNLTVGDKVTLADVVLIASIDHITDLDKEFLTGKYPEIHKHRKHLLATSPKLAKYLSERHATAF
Chain of Diphosphomevalonate decarboxylase (Q9FD53 whole entry): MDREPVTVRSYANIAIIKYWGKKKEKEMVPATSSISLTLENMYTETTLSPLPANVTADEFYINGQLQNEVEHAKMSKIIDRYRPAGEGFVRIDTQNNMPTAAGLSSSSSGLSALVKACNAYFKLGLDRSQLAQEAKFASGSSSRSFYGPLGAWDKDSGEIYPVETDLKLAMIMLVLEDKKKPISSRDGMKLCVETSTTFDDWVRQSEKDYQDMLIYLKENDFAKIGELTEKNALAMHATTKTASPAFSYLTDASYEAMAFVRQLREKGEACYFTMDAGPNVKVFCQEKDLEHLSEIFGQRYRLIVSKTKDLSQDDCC

For orientation: IC50 means the concentration that gives 50% inhibition. On to `O=C(NCc1ccco1)c1ccccc1-n1sc2ccccc2c1=O`, for which, in assay [1], the IC50 was 38.7 µM (active).

Turning to `CCCCC(CC)CN1CN(CC(CC)CCCC)CC(C)(N)C1` (stereo not drawn) [HEXETIDINE], the IC50 is 26.6 µM (inactive) in assay [2] and 36.4 µM (inactive) in assay [3].

In the case of `Nc1c(SCCC(=O)O)ccc2c1C(=O)c1ccccc1C2=O`, the IC50 on Fibrinogen beta chain [4] was > 83.3 µM (inactive); on Fibrinogen beta chain [5], 11.7 µM (inactive).

Regarding `COc1ccc(O)c(N)c1`, the IC50 in assay [6] is 1.53 µM (active); in assay [7], > 100 µM (active).

Consider `CC(C)(C)c1nc2sc3c(c2c(=O)o1)CCCC3`, for which, in assay [8], the IC50 was > 100 µM (active).

As for `Cc1ccccc1-n1nc(C)c2cc(C(=O)N3CCOCC3)sc21`, the IC50 in assay [9] is listed as > 93.1 µM (not active).

Usually CC50 stands for the concentration at which the toxic effect on the cells reaches its halfway point. By EC50 is commonly meant the concentration at which the effect is half-maximal. In general, AC50 refers to the midpoint of the concentration-response curve, whichever way the signal moves. On to `CC1=CC(C)(C)N2C(=O)/C(=N/c3ccc(O)cc3)c3cccc1c32`, for which, in assay [10], the CC50 was 9.38 µM (active). For the same compound, the EC50 on Protein RecA was > 380 µM (inactive). For the same compound, in assay [11], the AC50 is > 380 µM (inactive). Also, the IC50 at Protein Tat is > 100 µM (active).
